Entries after “also recorded” stand apart in the source; their conditions may differ.
How the values were obtained:
[1] = system: oxazolone-induced ear swelling in CD-1 mice; assay: mouse oxazolone-induced contact hypersensitization (MOCH), ear swelling; type: in vivo; details: for inhibition in vivo at 1 mg: topical to ear, mouse, 24 hours after oxazolone challenge, read-out: Oxazolone Ear Swelling (MOCH) % inhibition vs. Vehicle at 1 mg; for topical antiinflammatory activity in the oxazolone model (in words): mouse ear
Description: Several triphenylpropanamide compounds of this invention, having varying affinities for the human glucocorticoid receptor, were tested for topical antiinflammatory activity in mouse ear inflammation models. […] Compounds having receptor affinities closer to hydrocortisone were as nearly active as hydrocortisone in suppressing mouse oxazolone-induced contact hypersensitization (MOCH) and phorbol ester-induced ear edema. The in vivo studies of this example were conducted as follows.
In determining the MOCH using the compounds of this invention, albino male CD-1 mice, 7-9 weeks old were induced on the shaved abdomen with 50 μl of 3% oxazolone in acetone/corn oil (Day 0). On Day 5, a 20 μl volume of 2% oxazolone in acetone was applied to the dorsal left ear of the mouse. Compounds (made in ethanol/propylene glycol, 70:30) were applied to the left ear in 20 μl volume, one hour after oxazolone challenge. The right ear was not treated. The mice were sacrificed by carbon dioxide inhalation 24 hours after oxazolone challenge, the left and right ears were removed and a 7 mm biopsy was removed from each ear and weighed. The difference in biopsy weights between the right and left ears was calculated. Antiinflammatory effects of compounds were evident as an inhibition of the increase in ear weight.

| melting point [°C] | Structure (SMILES) | inhibition in vivo at 1 mg [1] [%] | topical antiinflammatory activity in the oxazolone model (in words) [1] |
| --- | --- | --- | --- |
| 140.5 to 141.2 | O=C(Cc1ccccc1Cl)NCC(c1ccccc1)C(c1ccccc1)c1ccccc1 (stereo not shown) [Compound 2] | 4 |  |
| 168.4 to 170.9 | O=C(Cc1ccc(Cl)cc1)NCC(c1ccccc1)C(c1ccccc1)c1ccccc1 (stereo not shown) [Compound 3] |  |  |
| 142.3 to 143.6 | Cc1ccc(CC(=O)NCC(c2ccccc2)C(c2ccccc2)c2ccccc2)cc1 (stereo not shown) [Compound 4] | 1 |  |
| 157 to 159 | COc1ccc(CC(=O)NCC(c2ccccc2)C(c2ccccc2)c2ccccc2)cc1 (stereo not shown) [Compound 6] | 38 |  |
| 123 to 124.5 | COc1ccc(CC(=O)NCC(c2ccccc2)C(c2ccccc2)c2ccccc2)cc1OC (stereo not shown) [Compound 7] |  |  |
| 165.2 to 166.5 | O=C(Cc1c(Cl)cccc1Cl)NCC(c1ccccc1)C(c1ccccc1)c1ccccc1 (stereo not shown) [Compound 8] |  |  |
| 65 to 68 | O=C(Cc1ccc(Cl)c(Cl)c1)NCC(c1ccccc1)C(c1ccccc1)c1ccccc1 (stereo not shown) [Compound 9] | 18 |  |
| 109 to 111.5 | O=C(Cc1ccccc1C(F)(F)F)NCC(c1ccccc1)C(c1ccccc1)c1ccccc1 (stereo not shown) [Compound 10] | 19 |  |
| 108.8 to 111.3 | O=C(Cc1cccc(C(F)(F)F)c1)NCC(c1ccccc1)C(c1ccccc1)c1ccccc1 (stereo not shown) [Compound 11] | 33 |  |
| 119.5 to 120.3 | O=C(Cc1ccc(C(F)(F)F)cc1)NCC(c1ccccc1)C(c1ccccc1)c1ccccc1 (stereo not shown) [Compound 12] | 36 |  |
| 178.7 to 179.8 | O=C(NCC(c1ccccc1)C(c1ccccc1)c1ccccc1)C(c1ccccc1)c1ccccc1 (stereo not shown) [Compound 13] | 10 |  |
| 151.5 to 152.7 | O=C(Cc1ccccc1)NCC(c1ccc(Cl)cc1)C(c1ccccc1)c1ccccc1 (stereo not shown) [Compound 14] | 11 |  |
|  | O=C(Cc1ccccc1)NCC(c1ccccc1)C(c1ccc(F)cc1)c1ccc(F)cc1 (stereo not shown) [Compound 15] |  | moderate topical activity |
| 127.3 to 129.4 | O=C(Cc1ccccc1Cl)NCC(c1ccccc1)C(c1ccc(F)cc1)c1ccc(F)cc1 (stereo not shown) [Compound 16] | 46 | moderate topical activity |
| 107.4 to 109 | O=C(CCc1ccccc1)NCC(c1ccccc1)C(c1ccccc1)c1ccccc1 (stereo not shown) [Compound 19] | 2 |  |
| 137 to 140 | COc1ccccc1CCC(=O)NCC(c1ccccc1)C(c1ccccc1)c1ccccc1 (stereo not shown) [Compound 20] | 32 |  |
| 135 to 135.8 | O=C(CCc1ccccc1Cl)NCC(c1ccccc1)C(c1ccccc1)c1ccccc1 (stereo not shown) [Compound 22] | 15 |  |
| 78.9 to 80.9 | COc1ccccc1CCC(=O)NCC(c1ccccc1)C(c1ccc(F)cc1)c1ccc(F)cc1 (stereo not shown) [Compound 23] | 41 | moderate topical activity |
| 78.1 to 81 | O=C(CCCc1ccccc1)NCC(c1ccccc1)C(c1ccccc1)c1ccccc1 (stereo not shown) [Compound 24] | 21 |  |
| 172.9 to 174.2 | O=S(=O)(Cc1ccccc1)NCC(c1ccccc1)C(c1ccccc1)c1ccccc1 (stereo not shown) [Compound 25] | 9 |  |
| 139.7 to 142.1 | Cc1ccc(S(=O)(=O)NCC(c2ccccc2)C(c2ccccc2)c2ccccc2)cc1 (stereo not shown) [Compound 26] | -5 |  |
| 186.9 to 187.5 | O=C(CS(=O)(=O)c1ccccc1)NCC(c1ccccc1)C(c1ccccc1)c1ccccc1 (stereo not shown) [Compound 27] | 20 |  |
| 190.3 to 191.9 | Cc1ccc(S(=O)(=O)CC(=O)NCC(c2ccccc2)C(c2ccccc2)c2ccccc2)cc1 (stereo not shown) [Compound 28] | 28 |  |
| 130 to 132 | O=C(Cc1cccs1)NCC(c1ccccc1)C(c1ccccc1)c1ccccc1 (stereo not shown) [Compound 29, N-(2-thiophene)acetyl-2,3,3-triphenylpropylamine] | 83 | equiactive with hydrocortisone; also recorded: inhibited ear swelling in a dose-dependent manner |
| 183.5 to 185 | Cc1ccc(C(=O)NCC(c2ccccc2)C(c2ccccc2)c2ccccc2)s1 (stereo not shown) [Compound 30] | 21 |  |
| 84.9 to 85.3 | O=C(Cc1cccs1)NCC(c1ccccc1)C(c1ccc(F)cc1)c1ccc(F)cc1 (stereo not shown) [Compound 31] | 14 |  |
| 127.9 to 128.9 | Cc1ccc(CC(=O)NCC(c2ccccc2)C(c2ccc(F)cc2)c2ccc(F)cc2)s1 (stereo not shown) [Compound 32] | 83 | equiactive with hydrocortisone; also recorded: inhibited ear swelling in a dose-dependent manner |

| melting point [°C] | Structure (SMILES) | inhibition in vivo at 1 mg [1] [%] | topical antiinflammatory activity in the oxazolone model (in words) [1] |
| --- | --- | --- | --- |
| 127 to 130 | O=C(Cc1cccs1)NCC(c1ccc(I)cc1)C(c1ccccc1)c1ccccc1 (stereo not shown) [Compound 33] | 74 |  |
| 126.3 to 127 | O=C(Cc1cccs1)NCC(c1ccc(Cl)cc1)C(c1ccccc1)c1ccccc1 (stereo not shown) [Compound 34] | 29 |  |
| 126.4 to 127.9 | O=C(Cc1ccsc1)NCC(c1ccc(Cl)cc1)C(c1ccccc1)c1ccccc1 (stereo not shown) [Compound 35] | 36 |  |
| 135 to 138 | O=C(Cc1ccsc1)NCC(c1ccccc1)C(c1ccccc1)c1ccccc1 (stereo not shown) [Compound 36] | 13 |  |
| 105.5 to 106.9 | O=C(CCCc1cccs1)NCC(c1ccccc1)C(c1ccccc1)c1ccccc1 (stereo not shown) [Compound 37] | 25 |  |
| 217.3 to 218.9 | O=C(C=Cc1cccs1)NCC(c1ccccc1)C(c1ccccc1)c1ccccc1 (stereo not shown) [Compound 38] | 13 |  |
| 204.8 to 206.5 | O=C(C=Cc1ccsc1)NCC(c1ccccc1)C(c1ccccc1)c1ccccc1 (stereo not shown) [Compound 39] | 24 |  |
| 169 to 170.9 | O=S(=O)(NCC(c1ccccc1)C(c1ccccc1)c1ccccc1)c1cccs1 (stereo not shown) [Compound 40] | 15 |  |
| 180.4 to 181.9 | O=S(=O)(NCC(c1ccc(Cl)cc1)C(c1ccccc1)c1ccccc1)c1cccs1 (stereo not shown) [Compound 41] | 3 |  |
| 153.5 to 154.7 | O=C(NCC(c1ccccc1)C(c1ccccc1)c1ccccc1)c1ccsc1 (stereo not shown) [Compound 42] | 27 |  |
| 218.3 to 218.8 | O=C(NCC(c1ccccc1)C(c1ccccc1)c1ccccc1)c1cc2ccccc2s1 (stereo not shown) [Compound 43] | 47 |  |
| 107 to 109.3 | CN(CC(c1ccccc1)C(c1ccccc1)c1ccccc1)C(=O)Cc1cccs1 (stereo not shown) [Compound 44] | 3 |  |
| 139 to 142 | O=C(NCC(c1ccccc1)C(c1ccccc1)c1ccccc1)c1cccs1 (stereo not shown) [Compound 45] | 31 |  |
| 89 to 93 | O=C(Cc1c[nH]c2ccccc12)NCC(c1ccccc1)C(c1ccccc1)c1ccccc1 (stereo not shown) [Compound 47] | 51 |  |
| 100 to 114 | O=C(CCc1c[nH]c2ccccc12)NCC(c1ccccc1)C(c1ccccc1)c1ccccc1 (stereo not shown) [Compound 48] | 22 |  |
| 120.1 to 121.7 | O=C(Cc1ccccn1)NCC(c1ccccc1)C(c1ccccc1)c1ccccc1 (stereo not shown) [Compound 49] | 20 |  |
| 210 to 211 | O=C(NCC(c1ccccc1)C(c1ccccc1)c1ccccc1)Nc1ccccc1Cl (stereo not shown) [Compound 52] |  |  |
| 190 to 191 | O=C(NCC(c1ccccc1)C(c1ccccc1)c1ccccc1)Nc1ccccc1F (stereo not shown) [Compound 53] | 24 |  |
| 170 to 171 | O=C(NCc1ccccc1)NCC(c1ccccc1)C(c1ccccc1)c1ccccc1 (stereo not shown) [Compound 54] | 10 |  |
| 166 to 167 | O=C(NCc1ccc(Cl)cc1Cl)NCC(c1ccccc1)C(c1ccccc1)c1ccccc1 (stereo not shown) [Compound 55] | 18 |  |
| 151 to 152 | O=C(NCC(c1ccccc1)C(c1ccccc1)c1ccccc1)Oc1ccc2ccccc2c1 (stereo not shown) [Compound 59] |  |  |
| 128.7 to 130.5 | O=C(Cc1cccs1)NCC(c1ccccc1)C1c2ccccc2-c2ccccc21 (stereo not shown) [Compound 71] |  |  |
| 172.7 to 174.6 | O=C(Cc1ccccc1)NCC(c1ccccc1)C1c2ccccc2CCc2ccccc21 (stereo not shown) [Compound 73] |  |  |
| 150 to 152 | O=C(Cc1ccccc1)NCC1(c2ccccc2)CC1(c1ccccc1)c1ccccc1 (stereo not shown) [Compound 78] |  |  |
| 121 to 122 | CC(C)(C)C(=O)NCC1(c2ccccc2)CC1(c1ccccc1)c1ccccc1 (stereo not shown) [Compound 86] |  |  |
|  | O=C(Cc1ccc(Cl)cc1)NCC(c1ccc2c(c1)OCO2)C(c1ccccc1)c1ccccc1 (stereo not shown) [Compound 98] |  | equiactive with hydrocortisone |
|  | C[C@]12CCC(=O)C=C1CC[C@@H]1[C@@H]2[C@@H](O)C[C@@]2(C)[C@H]1CC[C@]2(O)C(=O)CO [hydrocortisone, reference compound] | 75 to 85 |  |

Source: patent US6372779B1, “Anti-inflammatory compounds” (Ortho Pharmaceutical Corporation, priority 1997, dated 2002)
